Read-outs that look alike come from different tables or passages of the source. Marks after values point to notes of the source that are not given here. Each block holds one compound with its values, some of them ahead of it.
Columns and labels:
[1] = test system: patients with knee or hip primary osteoarthritis; assay: Four week placebo-controlled trial, most pain over the previous 24 hours on a 100 mm VAS; assay type: in vivo, human
Method: (§1) A four week multicenter randomized double-blind double-dummy placebo-controlled parallel group trial (the study) of four dosing regimens of 5-methyl-2-(2′-chloro-6′-fluoroanilino)phenylacetic acid in patients with knee or hip primary osteoarthritis is performed, using diclofenac as a comparator. Patients are male and female, from 18 to 75 years of age, have a clinical and radiological diagnosis of knee or hip osteoarthritis as defined by the American College of Rheumatology criteria, and have a pain intensity of at least 40 mm (Visual Analog Scale) in the affected joint prior to screening for inclusion in the study. 584 patients are randomized to receive either 50, 100, or 200 mg 5-methyl-2-(2′-chloro-6′-fluoroanilino)phenylacetic acid or 75 mg diclofenac administered orally twice a day, or 400 mg 5-methyl-2-(2′-chloro-6′-fluoroanilino)phenylacetic acid administered orally once a day, or placebo. Drug and placebo are administered in capsules. The comparator, diclofenac, is an extended release tablet that is over-encapsulated to match the placebo. The treatment duration is for 28 days.
(§2) Pharmacokinetics are performed on 52 of the patients who receive 5-methyl-2-(2′-chloro-6′-fluoroanilino)phenylacetic acid. Blood samples are taken at 0, 0.5, 1, 2, 3, 4 and 6 hours following administration of 5-methyl-2-(2′-chloro-6′-fluoroanilino)phenylacetic acid. Plasma concentrations of 5-methyl-2-(2′-chloro-6′-fluoroanilino)phenylacetic acid are measured by an LC/MS assay with a limit of quantitation of 10 ng/ml. Cmax and tmax AUC (0-6) are determined for day 1 and Cmax^ss and tmax^ss AUCτ^ss, Cmin^ss, Cav^ss, peak-trough fluctuation (PTF) and Cl/F at steady state are determined on day 28. The primary efficacy parameter is the most pain experienced over the previous 24 hours on a 100 mm VAS.

[2] = Pharmacokinetics in osteoarthritis patients, plasma concentrations by LC/MS; assay type: in vivo, human; settings: for Tmax / Cmax / AUC(0-t) / AUC: plasma; for AUC(0-t): read-out: AUC0-6
Method: as §1, §2

[3] = both sexes, human, po, 50 mg, 50 mg bid oral, day 0
[4] = both sexes, human, po, 50 mg, 50 mg bid oral, day 28
[5] = both sexes, human, po, 100 mg, 100 mg bid oral, day 0
[6] = both sexes, human, po, 100 mg, 100 mg bid oral, day 28
[7] = both sexes, human, po, 200 mg, 200 mg bid oral, day 0
[8] = both sexes, human, po, 200 mg, 200 mg bid oral, day 28
[9] = both sexes, human, po, 400 mg, 400 mg qd oral, day 0
[10] = both sexes, human, po, 400 mg, 400 mg qd oral, day 28

Structure (SMILES): O=C(O)Cc1ccccc1Nc1c(Cl)cccc1Cl [diclofenac, reference compound]
VAS pain, change from baseline ([1]; 75 mg twice a day, extended release tablet, day 7, 100 mm VAS): −27.9 mm
VAS pain, change from baseline ([1]; 75 mg twice a day, extended release tablet, day 14, 100 mm VAS): −30.4 (23.0)* mm
VAS pain, change from baseline ([1]; 75 mg twice a day, extended release tablet, day 28, 100 mm VAS): −31.8 mm

CLss/F ([2]; 50 mg bid oral, day 28): 15.0 ± 4.7 L/h
CLss/F ([2]; 100 mg bid oral, day 28): 13.3 ± 3.3 L/h
CLss/F ([2]; 200 mg bid oral, day 28): 15.0 ± 3.5 L/h
CLss/F ([2]; 400 mg qd oral, day 28): 17.4 ± 6.1 L/h
Dose dependence of AUC and Cmax ([2]; 50, 100, 200 mg twice daily and 400 mg once daily, day 28): dose proportional increase
Tmax ([2]; both sexes, human, oral, all dose groups, read-out: tmax, typical): 2 to 3 h
Cmax [2, 3]: 0.914 ± 0.34 µg/mL
AUC(0-t) [2, 3]: 2.68 ± 0.96 µg·h/mL
Tmax ([2]; both sexes, human, po, 50 mg, 50 mg bid oral, day 0, read-out: tmax): 2 h
Cmax [2, 4]: 1.01 ± 0.59 µg/mL
AUC(0-t) [2, 4]: 2.81 ± 1.21 µg·h/mL
Tmax ([2]; both sexes, human, po, 50 mg, 50 mg bid oral, day 28, read-out: tmax): 2 h
Cmax [2, 5]: 1.79 ± 0.6 µg/mL
AUC(0-t) [2, 5]: 5.22 ± 1.81 µg·h/mL
Tmax ([2]; both sexes, human, po, 100 mg, 100 mg bid oral, day 0, read-out: tmax): 2.5 h
Cmax [2, 6]: 1.86 ± 0.63 µg/mL
AUC(0-t) [2, 6]: 6.01 ± 1.89 µg·h/mL
Tmax ([2]; both sexes, human, po, 100 mg, 100 mg bid oral, day 28, read-out: tmax): 2 h
Cmax [2, 7]: 4.21 ± 2.16 µg/mL
AUC(0-t) [2, 7]: 11.7 ± 3.57 µg·h/mL
Tmax ([2]; both sexes, human, po, 200 mg, 200 mg bid oral, day 0, read-out: tmax): 3 h
Cmax [2, 8]: 4.38 ± 3.1 µg/mL
AUC(0-t) [2, 8]: 11.1 ± 3.02 µg·h/mL
Tmax ([2]; both sexes, human, po, 200 mg, 200 mg bid oral, day 28, read-out: tmax): 2 h
Cmax [2, 9]: 5.54 ± 1.8 µg/mL
AUC(0-t) [2, 9]: 17.2 ± 5.28 µg·h/mL
Tmax ([2]; both sexes, human, po, 400 mg, 400 mg qd oral, day 0, read-out: tmax): 3 h
Cmax [2, 10]: 4.79 ± 2.64 µg/mL
AUC(0-t) [2, 10]: 15.3 ± 5.59 µg·h/mL
Tmax ([2]; both sexes, human, po, 400 mg, 400 mg qd oral, day 28, read-out: tmax): 2 h
AUC ([2]; both sexes, human, 50 mg bid oral, day 28): 3.66 ± 1.29 µg·h/mL
AUC ([2]; both sexes, human, 100 mg bid oral, day 28): 8.1 ± 2.73 µg·h/mL
AUC ([2]; both sexes, human, 200 mg bid oral, day 28): 14 ± 3.22 µg·h/mL
AUC ([2]; both sexes, human, 400 mg qd oral, day 28): 25.8 ± 9.2 µg·h/mL
half-life ([2]; both sexes, human, blood plasma, oral administration): 3 to 6 h
Structure (SMILES): Cc1ccc(Nc2c(F)cccc2Cl)c(CC(=O)O)c1 [5-methyl-2-(2′-chloro-6′-fluoroanilino)phenylacetic acid]
VAS pain, change from baseline ([1]; 50 mg bid, day 7, 100 mm VAS): −19.5 (19.1)* mm
VAS pain, change from baseline ([1]; 50 mg bid, day 14, 100 mm VAS): −22.6 (20.9)* mm
VAS pain, change from baseline ([1]; 50 mg bid, day 28, 100 mm VAS): −28.6 mm
VAS pain, change from baseline ([1]; 100 mg bid, day 7, 100 mm VAS): −19.2 (21.6)* mm
VAS pain, change from baseline ([1]; 100 mg bid, day 14, 100 mm VAS): −21.2 (22.6)* mm
VAS pain, change from baseline ([1]; 100 mg bid, day 28, 100 mm VAS): −26.3 mm
VAS pain, change from baseline ([1]; 200 mg bid, day 7, 100 mm VAS): −22.0 (20.8)* mm
VAS pain, change from baseline ([1]; 200 mg bid, day 14, 100 mm VAS): −24.1 (22.8)* mm
VAS pain, change from baseline ([1]; 200 mg bid, day 28, 100 mm VAS): −29.6 mm
Pain relief of 400 mg once daily compared with 200 mg twice daily ([1]; 400 mg once daily): the same or better pain relief as 200 mg twice daily
Mean VAS scores compared with the other dose groups ([1]; 400 mg once daily, day 28, throughout the measurement period): best mean scores
VAS pain, change from baseline ([1]; 400 mg qd, day 7, 100 mm VAS): −26.0 (22.4)*a, b mm
VAS pain, change from baseline ([1]; 400 mg qd, day 14, 100 mm VAS): −27.5 (23.8)* mm
VAS pain, change from baseline ([1]; 400 mg qd, day 28, 100 mm VAS): −33.2 mm
Duration of effective anti-inflammatory treatment after a single oral dose ([1]; about 200 to about 1200 mg per day, immediate-release formulation, humans): 24 h
